The target of test [1] is T1, Calpain-9 (Homo sapiens, UniProt O14815).
T1 sequence (O14815 whole entry): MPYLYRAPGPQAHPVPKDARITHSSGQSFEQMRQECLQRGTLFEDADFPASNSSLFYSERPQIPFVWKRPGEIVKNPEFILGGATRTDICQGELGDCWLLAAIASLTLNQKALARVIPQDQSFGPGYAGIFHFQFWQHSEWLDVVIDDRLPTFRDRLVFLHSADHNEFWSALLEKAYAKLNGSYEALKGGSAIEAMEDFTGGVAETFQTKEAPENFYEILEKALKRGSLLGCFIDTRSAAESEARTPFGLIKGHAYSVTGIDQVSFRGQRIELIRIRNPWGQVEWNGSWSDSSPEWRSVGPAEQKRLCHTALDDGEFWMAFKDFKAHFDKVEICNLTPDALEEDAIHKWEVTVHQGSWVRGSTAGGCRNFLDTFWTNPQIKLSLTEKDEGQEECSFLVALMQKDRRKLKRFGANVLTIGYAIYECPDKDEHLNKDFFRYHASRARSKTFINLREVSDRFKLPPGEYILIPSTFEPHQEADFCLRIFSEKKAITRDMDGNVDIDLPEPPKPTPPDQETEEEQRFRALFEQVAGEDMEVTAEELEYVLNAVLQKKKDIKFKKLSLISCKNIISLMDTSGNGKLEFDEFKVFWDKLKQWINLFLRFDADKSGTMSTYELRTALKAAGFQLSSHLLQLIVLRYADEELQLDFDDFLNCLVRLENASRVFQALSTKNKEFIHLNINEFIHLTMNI
Description: Inhibition of human recombinant mini-CAPN9 pre-incubated for 10 mins before calpain FRET peptide 5-FAM /QXL520 substrate addition by FLIPR assay.

For test [2], the species on record is Mus musculus. Description: Inhibition of calcineurin in mouse NMuMG cells assessed as suppression of TGFbeta1-induced EMT by measuring alpha-SMA expression at 0.25 to 0.75 uM incubated for 72 hrs by Western blot analysis. The test is classed as cell-based.
The target in test [3] is Mothers against decapentaplegic homolog 2 (Mus musculus) (UniProt Q62432). Description: Inhibition of TGFbeta1-induced SMAD2 phosphorylation in mouse NMuMG cells at 25 to 50 uM incubated for 72 hrs. It is filed as cell-based.
Sequence of Mothers against decapentaplegic homolog 2 (Mus musculus) (Q62432 whole entry): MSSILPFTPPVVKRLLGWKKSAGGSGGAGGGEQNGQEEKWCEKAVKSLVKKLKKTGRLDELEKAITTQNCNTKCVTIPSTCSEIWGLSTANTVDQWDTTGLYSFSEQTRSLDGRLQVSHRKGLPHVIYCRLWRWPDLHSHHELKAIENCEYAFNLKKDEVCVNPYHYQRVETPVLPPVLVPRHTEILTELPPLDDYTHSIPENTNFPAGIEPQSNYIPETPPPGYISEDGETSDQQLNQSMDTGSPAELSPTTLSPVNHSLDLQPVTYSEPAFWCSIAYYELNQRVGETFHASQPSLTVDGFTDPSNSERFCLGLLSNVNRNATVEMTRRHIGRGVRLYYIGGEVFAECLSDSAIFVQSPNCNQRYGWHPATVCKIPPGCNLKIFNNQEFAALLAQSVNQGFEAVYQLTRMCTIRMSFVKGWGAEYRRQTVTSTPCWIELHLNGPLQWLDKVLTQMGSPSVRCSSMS
The target of test [4] is Transient receptor potential cation channel subfamily M member 7 (Mus musculus) (UniProt Q923J1). To be noted: at 25 to 50 µM.
Sequence of Transient receptor potential cation channel subfamily M member 7 (Mus musculus) (Q923J1 whole entry): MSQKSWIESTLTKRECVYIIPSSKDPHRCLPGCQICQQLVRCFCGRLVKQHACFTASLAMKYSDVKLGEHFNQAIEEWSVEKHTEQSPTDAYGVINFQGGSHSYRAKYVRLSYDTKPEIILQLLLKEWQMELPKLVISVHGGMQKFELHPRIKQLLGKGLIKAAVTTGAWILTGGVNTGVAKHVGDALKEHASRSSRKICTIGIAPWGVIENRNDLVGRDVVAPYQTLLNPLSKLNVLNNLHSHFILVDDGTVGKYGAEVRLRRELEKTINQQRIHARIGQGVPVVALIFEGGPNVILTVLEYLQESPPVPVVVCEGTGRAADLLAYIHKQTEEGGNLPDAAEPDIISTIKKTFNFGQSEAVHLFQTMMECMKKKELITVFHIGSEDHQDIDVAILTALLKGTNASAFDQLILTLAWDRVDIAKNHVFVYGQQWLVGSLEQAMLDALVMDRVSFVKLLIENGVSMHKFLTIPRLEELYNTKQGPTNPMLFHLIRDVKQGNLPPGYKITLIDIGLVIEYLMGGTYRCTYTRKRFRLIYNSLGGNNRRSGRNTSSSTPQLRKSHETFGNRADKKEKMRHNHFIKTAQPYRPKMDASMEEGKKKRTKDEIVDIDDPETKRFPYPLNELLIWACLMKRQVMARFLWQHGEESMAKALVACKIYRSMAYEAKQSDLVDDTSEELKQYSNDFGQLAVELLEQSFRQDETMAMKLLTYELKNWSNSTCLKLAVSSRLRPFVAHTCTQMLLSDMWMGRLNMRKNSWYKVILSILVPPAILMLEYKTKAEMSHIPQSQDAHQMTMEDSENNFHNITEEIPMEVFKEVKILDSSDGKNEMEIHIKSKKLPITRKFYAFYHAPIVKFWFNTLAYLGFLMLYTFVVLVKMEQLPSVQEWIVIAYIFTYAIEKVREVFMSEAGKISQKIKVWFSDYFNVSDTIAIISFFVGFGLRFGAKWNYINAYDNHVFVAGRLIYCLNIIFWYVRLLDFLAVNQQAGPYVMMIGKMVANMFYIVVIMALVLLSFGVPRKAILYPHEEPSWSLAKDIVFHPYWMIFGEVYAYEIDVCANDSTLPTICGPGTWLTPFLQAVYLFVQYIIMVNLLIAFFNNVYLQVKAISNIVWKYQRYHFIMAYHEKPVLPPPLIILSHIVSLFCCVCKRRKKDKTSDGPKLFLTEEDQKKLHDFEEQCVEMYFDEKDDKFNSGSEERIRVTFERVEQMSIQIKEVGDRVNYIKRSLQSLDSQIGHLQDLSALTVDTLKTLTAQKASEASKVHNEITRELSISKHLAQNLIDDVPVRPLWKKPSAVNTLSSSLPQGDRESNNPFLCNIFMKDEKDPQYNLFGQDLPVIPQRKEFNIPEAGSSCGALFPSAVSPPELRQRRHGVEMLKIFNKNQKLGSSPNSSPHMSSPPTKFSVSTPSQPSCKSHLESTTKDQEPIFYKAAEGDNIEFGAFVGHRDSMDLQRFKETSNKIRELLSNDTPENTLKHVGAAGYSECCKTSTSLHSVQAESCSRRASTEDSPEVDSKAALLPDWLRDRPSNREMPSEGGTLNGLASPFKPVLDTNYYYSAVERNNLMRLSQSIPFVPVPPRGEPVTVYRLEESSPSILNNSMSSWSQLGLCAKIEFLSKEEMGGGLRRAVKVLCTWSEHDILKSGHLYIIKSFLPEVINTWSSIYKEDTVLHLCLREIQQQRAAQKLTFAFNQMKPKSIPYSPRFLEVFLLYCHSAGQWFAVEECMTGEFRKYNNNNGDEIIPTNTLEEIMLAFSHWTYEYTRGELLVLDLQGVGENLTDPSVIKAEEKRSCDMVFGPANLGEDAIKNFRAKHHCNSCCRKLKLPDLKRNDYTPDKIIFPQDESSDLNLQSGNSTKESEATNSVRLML
Description: Inhibition of TRPM7 in mouse NMuMG cells assessed as suppression of TGFbeta1-induced EMT by measuring alpha-SMA expression at 25 to 50 uM incubated for 24 to 72 hrs by Western blot analysis
In test [5] the target is Transient receptor potential cation channel subfamily M member 7 (Homo sapiens) (UniProt Q96QT4). Description: Inhibition of TRPM7 in NHLF assessed as inhibition of TGFB1-induced FMT by measuring alpha-SMA expression at 25 to 50 uM incubated for 24 hrs by Western blot analysis. (In general: Immunoblotting shows a protein as a band on a membrane.)
Sequence of Transient receptor potential cation channel subfamily M member 7 (Homo sapiens) (Q96QT4 whole entry): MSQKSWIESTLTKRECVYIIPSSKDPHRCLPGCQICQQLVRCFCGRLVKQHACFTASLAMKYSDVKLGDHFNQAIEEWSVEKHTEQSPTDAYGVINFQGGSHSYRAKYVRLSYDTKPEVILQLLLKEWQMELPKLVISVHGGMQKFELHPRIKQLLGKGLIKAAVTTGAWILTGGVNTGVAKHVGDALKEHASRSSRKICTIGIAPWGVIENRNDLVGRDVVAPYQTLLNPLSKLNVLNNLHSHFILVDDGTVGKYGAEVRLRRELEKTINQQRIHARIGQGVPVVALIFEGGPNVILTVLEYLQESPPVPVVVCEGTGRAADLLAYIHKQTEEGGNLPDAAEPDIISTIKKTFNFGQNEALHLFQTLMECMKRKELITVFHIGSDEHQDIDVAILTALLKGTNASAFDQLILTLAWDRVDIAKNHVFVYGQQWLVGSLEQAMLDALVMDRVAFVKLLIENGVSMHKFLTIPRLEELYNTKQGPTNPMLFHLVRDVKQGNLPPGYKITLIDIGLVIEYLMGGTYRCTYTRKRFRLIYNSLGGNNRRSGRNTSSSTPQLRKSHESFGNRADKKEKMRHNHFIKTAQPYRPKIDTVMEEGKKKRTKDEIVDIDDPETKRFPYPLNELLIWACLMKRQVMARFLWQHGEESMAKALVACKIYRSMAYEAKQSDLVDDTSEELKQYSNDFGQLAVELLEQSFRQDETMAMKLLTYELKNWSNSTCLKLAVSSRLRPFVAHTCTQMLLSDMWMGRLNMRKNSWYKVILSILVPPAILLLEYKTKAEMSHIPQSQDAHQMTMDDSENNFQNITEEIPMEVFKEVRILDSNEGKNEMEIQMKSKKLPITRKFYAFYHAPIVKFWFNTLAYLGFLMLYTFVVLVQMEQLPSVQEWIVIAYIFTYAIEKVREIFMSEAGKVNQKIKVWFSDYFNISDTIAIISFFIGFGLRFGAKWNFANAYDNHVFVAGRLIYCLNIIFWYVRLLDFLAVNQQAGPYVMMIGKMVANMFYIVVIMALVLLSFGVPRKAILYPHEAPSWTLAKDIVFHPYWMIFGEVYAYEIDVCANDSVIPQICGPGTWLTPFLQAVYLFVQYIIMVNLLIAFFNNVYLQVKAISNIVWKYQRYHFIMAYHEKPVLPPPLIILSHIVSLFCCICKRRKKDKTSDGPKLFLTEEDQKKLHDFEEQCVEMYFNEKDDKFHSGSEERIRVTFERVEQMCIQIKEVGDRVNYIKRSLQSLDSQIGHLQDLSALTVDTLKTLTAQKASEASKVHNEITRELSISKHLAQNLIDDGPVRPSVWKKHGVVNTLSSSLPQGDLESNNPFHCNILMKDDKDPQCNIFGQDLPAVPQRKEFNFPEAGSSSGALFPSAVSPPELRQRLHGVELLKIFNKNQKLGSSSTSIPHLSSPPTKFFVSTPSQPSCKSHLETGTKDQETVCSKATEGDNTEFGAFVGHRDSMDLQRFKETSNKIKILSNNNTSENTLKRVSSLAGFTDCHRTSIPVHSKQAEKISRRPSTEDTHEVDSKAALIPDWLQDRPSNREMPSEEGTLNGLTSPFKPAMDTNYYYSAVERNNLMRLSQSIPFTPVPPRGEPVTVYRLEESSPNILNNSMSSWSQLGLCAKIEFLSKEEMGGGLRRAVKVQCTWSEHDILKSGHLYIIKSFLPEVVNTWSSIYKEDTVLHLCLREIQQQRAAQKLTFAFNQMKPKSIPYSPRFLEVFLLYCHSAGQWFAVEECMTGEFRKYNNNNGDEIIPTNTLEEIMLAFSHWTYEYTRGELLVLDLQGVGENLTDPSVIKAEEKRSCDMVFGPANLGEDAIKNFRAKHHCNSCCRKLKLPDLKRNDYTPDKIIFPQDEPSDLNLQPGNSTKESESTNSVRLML
The target in test [6] is Transient receptor potential cation channel subfamily M member 7 (Mus musculus) (UniProt Q923J1). The following applies: at 25 to 50 µM. This is another data set of the same source.
Description: Inhibition of TRPM7 in mouse NMuMG cells assessed as suppression of TGFbeta1-induced calpain activity by measuring Filamin-A levels at 25 to 50 uM incubated for 24 to 72 hrs by Western blot analysis
In test [7] the target is Calpain1/2 (Homo sapiens) (UniProt P17655+P07384). The following applies: 10 to 20 uM.
Description: Inhibition of calpain in NHLF assessed as inhibition of TGFB1-induced FMT by measuring alpha-SMA expression at 10 to 20 uM incubated for 24 hrs by Western blot analysis
For test [8], the species on record is Mus musculus. Nature of the test: Inhibition of calpain in mouse NMuMG cells assessed as suppression of TGFbeta1-induced EMT by measuring alpha-SMA expression at 10 to 20 uM incubated for 48 to 72 hrs after 72 hrs pre-incubation with TGFbeta with continued presence of TGFbeta by Western blot analysis. The test is classed as cell-based.
Test [9] addresses Mothers against decapentaplegic homolog 2 (Mus musculus) (UniProt Q62432). Nature of the test: Inhibition of TGFbeta1-induced SMAD2 phosphorylation in mouse NMuMG cells at 10 to 20 uM incubated for 24 to 72 hrs. It is filed as cell-based.
The test system of test [10] is MDCK. Nature of the test: Inhibition of calpain in MDCK cells assessed as suppression of TGFbeta1-induced EMT by measuring alpha-SMA expression at 10 to 20 uM incubated for 24 to 72 hrs by Western blot analysis. The test is classed as cell-based. To be noted: Canis lupus familiaris.
Test [11] is filed under the species Mus musculus. Description: Inhibition of calpain in mouse NMuMG cells assessed as suppression of TGFbeta1-induced actin cytoskeleton reorganization at 10 to 20 uM. The test is classed as cell-based.
For test [12], the species on record is Mus musculus. Nature of the test: Inhibition of calpain in mouse NMuMG cells assessed as suppression of TGFbeta1-induced EMT by measuring alpha-SMA expression at 10 to 20 uM incubated for 24 to 72 hrs by Western blot analysis. It is filed as cell-based.
For test [13], the species on record is Mus musculus. Nature of the test: Inhibition of calpain in mouse NMuMG cells assessed as suppression of TGFbeta1-induced E-cadherin expression at 10 to 20 uM by immunofluorescence microscopy. It is filed as cell-based.
Test [14] is filed under the species Mus musculus. Description: Inhibition of calpain in mouse NMuMG cells assessed as suppression of TGFbeta1-induced EMT by measuring MMP2 expression at 10 to 20 uM incubated for 48 hrs. It is filed as cell-based.
For test [15], the species on record is Mus musculus. Description: Inhibition of calpain in mouse NMuMG cells assessed as suppression of TGFbeta1-induced EMT by measuring collagen 1A1 expression at 10 to 20 uM incubated for 48 hrs. It is filed as cell-based.
Test [16] is filed under the species Mus musculus. Description: Inhibition of calpain in mouse NMuMG cells assessed as suppression of TGFbeta1-induced actin cytoskeleton reorganization at 10 to 20 uM incubated for 48 to 72 hrs after 72 hrs pre-incubation with TGFbeta with continued presence of TGFbeta. It is filed as cell-based.
The species named for test [17] is Mus musculus. Nature of the test: Inhibition of calpain in mouse NMuMG cells assessed as suppression of TGFbeta1-induced EMT by measuring MMP9 expression at 10 to 20 uM incubated for 48 hrs. The test is classed as cell-based.
The species entered for test [18] is Mus musculus. Description: Inhibition of calpain in mouse NMuMG cells assessed as suppression of TGFbeta1-induced E-cadherin expression at 10 to 20 uM incubated for 48 to 72 hrs after 72 hrs pre-incubation with TGFbeta with continued presence of TGFbeta by immunofluorescence microscopy. The test is classed as cell-based.
For test [19], the species on record is Mus musculus. Description: Inhibition of calpain in mouse NMuMG cells assessed as suppression of TGFbeta1-induced EMT by measuring vimentin expression at 10 to 20 uM incubated for 48 hrs. It is filed as cell-based.
Test [20] deals with Mothers against decapentaplegic homolog 2 (Mus musculus) (UniProt Q62432). The following applies: at 25 to 50 µM.
Description: Inhibition of TGFbeta1-induced SMAD2 phosphorylation in mouse NMuMG cells at 25 to 50 uM incubated for 24 to 72 hrs
For test [21], the species on record is Mus musculus. Description: Inhibition of calpain in mouse NMuMG cells assessed as suppression of TGFbeta1-induced calpain activity by measuring Filamin-A levels at 25 to 50 uM incubated for 24 to 72 hrs by Western blot analysis. It is filed as cell-based.
The species entered for test [22] is Mus musculus. Nature of the test: Inhibition of calpain in mouse NMuMG cells assessed as suppression of TGFbeta1-induced EMT by measuring alpha-SMA expression at 25 to 50 uM incubated for 24 to 72 hrs by Western blot analysis. The test is classed as cell-based.
The species entered for test [23] is Mus musculus. Description: Inhibition of TGFbeta receptor in mouse NMuMG cells assessed as suppression of TGFbeta1-induced EMT by measuring alpha-SMA expression at 1 to 10 uM incubated for 24 to 72 hrs by Western blot analysis. The test is classed as cell-based.
The species named for test [24] is Mus musculus. Nature of the test: Inhibition of TGFbeta receptor in mouse NMuMG cells assessed as suppression of TGFbeta1-induced calpain activity by measuring Filamin-A levels at 1 to 10 uM incubated for 24 to 72 hrs by Western blot analysis. It is filed as cell-based.
The species entered for test [25] is Mus musculus. Description: Inhibition of TGFbeta receptor in mouse NMuMG cells assessed as suppression of TGFbeta1-induced SMAD2 phosphorylation at 1 to 10 uM incubated for 24 to 72 hrs by Western blot analysis. It is filed as cell-based.

In ChEMBL document CHEMBL4420069, “Targeting capn9/capns2 activity as a therapeutic strategy for the treatment of myofibroblast differentiation and associated pathologies” (2018) one finds IC50 and inhibition data, which are given here for eight compounds.

The source made the active and inactive calls. The calls are words filed in the database; no cut-off is given here. Where a SMILES comes first, the peptide text is derived from it. The star is where a group is joined. Cbz = O=C(OCc1ccccc1)*; CH2F = FC*

As for `COC(=O)C[C@H](NC(=O)[C@H](C)NC(=O)[C@@H](NC(=O)OCc1ccccc1)C(C)C)C(=O)CF` (Cbz-Val-Ala-Asp(OMe)-CH2F), in test [1], the IC50 (as a rule, the point on the concentration scale where inhibition reaches its midpoint) worked out at 100 µM.
Consider `C=CC[C@@H]1/C=C(\C)C[C@H](C)C[C@H](OC)[C@H]2O[C@@](O)(C(=O)C(=O)N3CCCC[C@H]3C(=O)O[C@H](/C(C)=C/[C@@H]3CC[C@@H](O)[C@H](OC)C3)[C@H](C)[C@@H](O)CC1=O)[C@H](C)C[C@@H]2OC`, for which the inhibition entry in test [2] was “Active”.
On to `C[C@H](NC(=O)[C@H](Cc1ccccc1)NC(=O)OCc1ccccc1)C(=O)CF`, for which, in [1], the 50% inhibitory concentration (IC50) is 100 µM.
`c1ccc2c(c1)CCC[C@H]2Nc1nc2ccccc2[nH]1`: in test [3], the inhibition result is “inactive”. Moreover, the inhibition entry in test [4], in [5] and in test [6] was “Active” throughout.
In the case of `CC(C)[C@H](NC(=O)OCc1ccccc1)C(=O)N[C@H](C=O)Cc1ccccc1` (Cbz-Val-Phe-aldehyde), the inhibition entry in test [7], in test [8], in [10], in test [11], in [12] and in test [13] was “Active” throughout. The inhibition result in test [14], in test [15], in [16], in test [17], in [18] and in test [19] was “Active” in each case. In addition, the inhibition entry in [9] was “inactive”.
For the compound `CCCC[C@@H](C=O)NC(=O)[C@H](CC(C)C)NC(=O)OCc1ccccc1`, the inhibition entry in test [20] is “inactive”. Moreover, the inhibition result in test [21] and in [22] was “Active” in each case.
Take `NC(=O)c1ccc(-c2nc(-c3ccccn3)c(-c3ccc4c(c3)OCO4)[nH]2)cc1`: the inhibition entry in test [23], in test [24] and in test [25] was “Active” throughout.
On to `NCCOB(c1ccccc1)c1ccccc1`, for which, in [20], the inhibition result was “inactive”. Also, the inhibition entry in test [4] and in test [6] was “Active” each time.
